Test results reported in PMC5522996, “Big conductance calcium‐activated potassium channel openers control spasticity without sedation” (British Journal of Pharmacology, 2017).
Read-outs that look alike come from different tables or passages of the source.

Key:
δ2 = molecular target: T1, δ2 (Homo sapiens, UniProt P41143); test: Receptor binding profile of VSN16R; details: 10µM VSN16R
T1 construct: purchased Cerep; Chantest; DiscoveRx; Multispan; MDS Pharma Services

EDG2 = molecular target: T2, EDG2 (Homo sapiens, UniProt Q92633); test: Receptor binding profile of VSN16R; details: 10µM VSN16R
T2 construct: purchased Cerep; Chantest; DiscoveRx; Multispan; MDS Pharma Services

κ = molecular target: T3, κ (Homo sapiens, UniProt P41145); test: Receptor binding profile of VSN16R; details: 10µM VSN16R
T3 construct: purchased Cerep; Chantest; DiscoveRx; Multispan; MDS Pharma Services

[1] = tested on: Salmonella typhimurium and Escherichia coli strains; test: Standard Ames test (summary); format: cell-based
Protocol: Strain of Organism Treatment Dose Revertants per plate
First Mutation without Metabolic Stimulation
Second Mutation without Metabolic Stimulation
VSN16R was incubated at various concentrations with either TA1535, TA1537, TA98 and TA100 strains of Salmonella typhimurium, which carry mutations in genes involved in histidine synthesis, and WP2uvvA Escherichia coli. The bacteria are spread on agar plates with limiting histidine content and incubated for 48 h. The number of histidine gene negative to positive revertants was assessed in two experiments. The results represent the mean ± SD. n=3/group. This was performed by Charles

[2] = Plasma levels in toxicological studies, rats; format: in vivo; details: both sexes, Sprague Dawley, rat, po; for concentration at 30 min: 30 min following 50 mg·kg^−1 p.o.
Protocol: Twenty‐eight day toxicology in rats and dogs for Investigational New Drug filing was performed by Charles Rivers (UK). Reproductive toxicology in rabbits was performed by Charles Rivers (Canada). Pharmacokinetic and/or toxicological doses ranged from 5 to 1000 mg·kg^−1 p.o. in Sprague Dawley male and female rats (n = 6‐26 per group), 50–200 mg·kg^−1 p.o. in male and female Beagle dogs (n = 6 per group) and 100–750 mg·kg^−1 p.o. in female New Zealand white rabbits (n = 9 per group). Results are expressed as mean ± SD.
The stability of compounds when subjected to hepatic and plasma degradation was assessed in vitro by Inpharmatica, Cambridge, UK. Compounds (1 μM) were incubated with either pooled mouse liver microsomes (0.1 mg protein mL^−1) or pooled mouse plasma at 37°C for 0, 5, 10, 20 and 40 min before termination with acetonitrile containing warfarin as an analytical internal standard. Samples were centrifuged, and the resultant supernatant analysed for parent compound. The mass responses at baseline were taken as the 100% reference values against which the disappearance of the compound was measured. The natural log of the % remaining values was used to generate linear plots of disappearance of the compounds. Half‐life values were calculated from the slope of these plots. Hepatocyte metabolism was assessed by Cyprotex, Macclesfield, and 10 μM VSN16R was incubated with primary mouse, rat, monkey (Macaque) and human hepatocytes for 1 h, and the presence of metabolites was assessed using liquid […] mass spectroscopy. The stability of VSN16R was assessed in vivo by Inpharmatica, Cyprotex and Charles Rivers, Cambridge. Blood (plasma) samples were obtained prior to and 5 min to 24 h after drug administration of 2–5 mg·kg^−1 i.v. or 5 mg·kg^−1 p.o. VSN16R into outbred mice and rats (n = 3 per time point). In addition, plasma, brain and spinal cord samples were obtained from ABH with spastic EAE. Immediately after blood collection, the brain and spinal cord were removed and then stored at −20°C prior to assay. […] Data are expressed as mean ± SEM. […]

CB1 = molecular target: T4, CB1 (Homo sapiens, UniProt P21554); test: Receptor binding profile of VSN16R
T4 construct: purchased Cerep; Chantest; DiscoveRx; Multispan; MDS Pharma Services

5-HT7 = molecular target: T5, 5-HT7 (Homo sapiens, UniProt P34969); test: Receptor binding profile of VSN16R; details: 10µM VSN16R
T5 construct: purchased Cerep; Chantest; DiscoveRx; Multispan; MDS Pharma Services

NT1 = molecular target: T6, NT1 (Homo sapiens, UniProt P30989); test: Receptor binding profile of VSN16R; details: 10µM VSN16R
T6 construct: purchased Cerep; Chantest; DiscoveRx; Multispan; MDS Pharma Services

NE transporter = molecular target: T7, NE transporter (Homo sapiens, UniProt P23975); test: Receptor binding profile of VSN16R; details: 10µM VSN16R
T7 construct: purchased Cerep; Chantest; DiscoveRx; Multispan; MDS Pharma Services

sst(non-selective) = test: Receptor binding profile of VSN16R; set-up: species or system human; details: 10µM VSN16R
NK2 = molecular target: T8, NK2 (Homo sapiens, UniProt P21452); test: Receptor binding profile of VSN16R; details: 10µM VSN16R
T8 construct: purchased Cerep; Chantest; DiscoveRx; Multispan; MDS Pharma Services

Water solubility = format: physicochemical

T4 sequence (P21554 whole entry): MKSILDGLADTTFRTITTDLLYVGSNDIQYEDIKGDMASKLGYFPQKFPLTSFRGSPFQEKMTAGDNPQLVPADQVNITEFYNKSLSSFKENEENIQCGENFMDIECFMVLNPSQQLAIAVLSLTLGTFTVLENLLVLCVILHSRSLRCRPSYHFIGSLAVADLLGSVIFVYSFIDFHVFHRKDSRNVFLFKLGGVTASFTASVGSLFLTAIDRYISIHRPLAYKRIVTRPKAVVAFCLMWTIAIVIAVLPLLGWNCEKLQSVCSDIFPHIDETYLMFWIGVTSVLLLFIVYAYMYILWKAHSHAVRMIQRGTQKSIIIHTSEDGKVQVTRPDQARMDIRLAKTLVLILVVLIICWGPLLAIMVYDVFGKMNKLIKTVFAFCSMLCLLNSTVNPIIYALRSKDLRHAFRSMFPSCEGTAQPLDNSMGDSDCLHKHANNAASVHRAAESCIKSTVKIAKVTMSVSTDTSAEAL
T3 sequence (P41145 whole entry): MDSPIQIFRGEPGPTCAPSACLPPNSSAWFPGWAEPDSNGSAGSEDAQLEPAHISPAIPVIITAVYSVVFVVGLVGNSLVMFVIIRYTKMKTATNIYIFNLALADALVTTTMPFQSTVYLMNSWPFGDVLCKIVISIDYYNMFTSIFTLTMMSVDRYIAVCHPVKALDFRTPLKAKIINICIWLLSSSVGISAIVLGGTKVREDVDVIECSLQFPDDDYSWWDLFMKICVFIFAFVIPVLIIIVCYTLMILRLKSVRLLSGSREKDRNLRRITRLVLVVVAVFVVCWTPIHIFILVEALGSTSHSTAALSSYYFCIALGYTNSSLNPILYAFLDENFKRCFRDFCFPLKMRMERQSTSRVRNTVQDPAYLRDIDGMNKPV
T1 sequence (P41143 whole entry): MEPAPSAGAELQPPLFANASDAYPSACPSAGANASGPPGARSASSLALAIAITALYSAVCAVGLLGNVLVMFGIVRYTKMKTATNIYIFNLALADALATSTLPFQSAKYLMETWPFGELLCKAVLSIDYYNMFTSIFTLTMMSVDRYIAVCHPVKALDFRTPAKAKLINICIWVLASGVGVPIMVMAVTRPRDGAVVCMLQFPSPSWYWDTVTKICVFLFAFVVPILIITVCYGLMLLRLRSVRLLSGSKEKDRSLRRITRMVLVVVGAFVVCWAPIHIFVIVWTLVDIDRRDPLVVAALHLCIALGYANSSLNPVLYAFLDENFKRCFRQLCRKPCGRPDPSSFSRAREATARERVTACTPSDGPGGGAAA
T8 sequence (P21452 whole entry): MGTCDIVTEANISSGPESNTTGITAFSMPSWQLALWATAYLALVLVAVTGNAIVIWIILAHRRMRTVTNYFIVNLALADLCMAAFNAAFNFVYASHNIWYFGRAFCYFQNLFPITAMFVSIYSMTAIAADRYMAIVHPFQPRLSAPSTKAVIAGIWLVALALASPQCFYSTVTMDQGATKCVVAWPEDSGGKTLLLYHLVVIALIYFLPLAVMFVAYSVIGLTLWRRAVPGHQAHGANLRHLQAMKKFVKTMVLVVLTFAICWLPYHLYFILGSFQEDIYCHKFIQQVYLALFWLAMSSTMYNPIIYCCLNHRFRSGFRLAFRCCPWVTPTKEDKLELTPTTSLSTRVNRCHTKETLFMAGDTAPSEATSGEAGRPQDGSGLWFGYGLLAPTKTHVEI
T7 sequence (P23975 whole entry): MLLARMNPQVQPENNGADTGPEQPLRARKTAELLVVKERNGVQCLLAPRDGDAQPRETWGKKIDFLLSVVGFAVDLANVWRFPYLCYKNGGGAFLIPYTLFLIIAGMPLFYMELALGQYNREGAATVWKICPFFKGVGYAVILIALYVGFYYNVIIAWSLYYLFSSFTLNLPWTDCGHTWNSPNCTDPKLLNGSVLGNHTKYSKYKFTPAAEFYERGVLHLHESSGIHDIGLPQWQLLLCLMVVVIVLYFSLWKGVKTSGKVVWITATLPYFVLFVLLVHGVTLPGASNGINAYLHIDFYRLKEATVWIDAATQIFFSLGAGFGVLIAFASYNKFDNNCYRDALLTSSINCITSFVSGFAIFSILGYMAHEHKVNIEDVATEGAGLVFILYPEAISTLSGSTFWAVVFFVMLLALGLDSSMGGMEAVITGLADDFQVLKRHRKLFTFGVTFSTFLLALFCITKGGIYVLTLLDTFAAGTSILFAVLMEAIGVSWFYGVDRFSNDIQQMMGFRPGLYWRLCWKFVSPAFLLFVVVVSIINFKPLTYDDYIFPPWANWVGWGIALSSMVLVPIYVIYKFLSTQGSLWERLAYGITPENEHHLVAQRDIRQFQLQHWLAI
T6 sequence (P30989 whole entry): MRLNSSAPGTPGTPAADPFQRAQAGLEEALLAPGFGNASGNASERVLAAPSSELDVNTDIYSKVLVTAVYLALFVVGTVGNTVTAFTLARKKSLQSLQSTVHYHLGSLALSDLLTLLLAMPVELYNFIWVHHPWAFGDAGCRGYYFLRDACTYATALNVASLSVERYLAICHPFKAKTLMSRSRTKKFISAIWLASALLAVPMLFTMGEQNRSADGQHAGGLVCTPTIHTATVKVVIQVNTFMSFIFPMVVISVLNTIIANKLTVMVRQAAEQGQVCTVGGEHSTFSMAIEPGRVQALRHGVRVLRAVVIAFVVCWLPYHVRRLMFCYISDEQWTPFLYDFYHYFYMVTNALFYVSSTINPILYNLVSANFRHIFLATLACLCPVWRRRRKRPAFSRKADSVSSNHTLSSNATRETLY
T2 sequence (Q92633 whole entry): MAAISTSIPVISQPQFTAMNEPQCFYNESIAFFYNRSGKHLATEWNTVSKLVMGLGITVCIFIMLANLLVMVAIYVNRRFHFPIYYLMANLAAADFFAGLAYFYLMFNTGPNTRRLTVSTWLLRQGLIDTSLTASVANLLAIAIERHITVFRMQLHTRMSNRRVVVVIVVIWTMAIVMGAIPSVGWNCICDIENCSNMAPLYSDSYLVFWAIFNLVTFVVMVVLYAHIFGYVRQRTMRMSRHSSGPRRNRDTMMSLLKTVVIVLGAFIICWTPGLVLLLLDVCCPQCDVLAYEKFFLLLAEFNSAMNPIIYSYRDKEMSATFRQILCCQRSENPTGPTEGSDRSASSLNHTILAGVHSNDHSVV
T5 sequence (P34969 whole entry): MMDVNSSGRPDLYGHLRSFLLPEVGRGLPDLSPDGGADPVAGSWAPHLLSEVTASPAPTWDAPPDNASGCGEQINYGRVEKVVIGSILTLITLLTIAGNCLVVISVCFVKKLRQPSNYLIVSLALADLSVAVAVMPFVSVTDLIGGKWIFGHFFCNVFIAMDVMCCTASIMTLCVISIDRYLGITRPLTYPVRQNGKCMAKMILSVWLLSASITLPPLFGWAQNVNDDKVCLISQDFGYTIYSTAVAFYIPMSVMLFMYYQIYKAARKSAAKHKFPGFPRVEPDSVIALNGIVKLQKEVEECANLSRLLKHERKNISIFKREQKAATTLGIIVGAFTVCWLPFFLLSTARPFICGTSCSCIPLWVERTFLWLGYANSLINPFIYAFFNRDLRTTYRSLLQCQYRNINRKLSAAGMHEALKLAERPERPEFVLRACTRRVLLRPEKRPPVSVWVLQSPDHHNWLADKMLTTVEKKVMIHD

C[C@H](CO)NC(=O)c1cccc(/C=C\CCCC(=O)N(C)C)c1 [VSN16R]
Activity (δ2): Negligible Activity | Activity (EDG2): Negligible Activity | Activity (κ): Negligible Activity | Mutagenesis in a standard Ames test [1]: no evidence of mutagenesis | Cmax ([2]; 1000 mg·kg^−1 p.o., read-out: Plasma level at Cmax): ≤ 368 µM | concentration at 30 min ([2]; read-out: VSN16R detected in plasma): 15 µM | concentration at 30 min ([2]; read-out: VSN16R detected in plasma (Mean ± SD)): 4907 ± 32.3 ng/mL | Activity (CB1; 10µM VSN16R): Negligible Activity | Binding or agonism at CB1 receptors (CB1; receptor‐transfected cell line‐based assays): does not bind to or agonize | Activity (5-HT7): Negligible Activity | Activity (NT1): Negligible Activity | Activity (NE transporter): Negligible Activity | Activity (sst(non-selective)): Negligible Activity | Activity (NK2): Negligible Activity | solubility (Water solubility): > 30 mg/mL
